One may read the Km as the concentration of substrate that gives half-maximal velocity.

Drawing on ChEMBL document CHEMBL1133223, “Mechanistic studies on prolyl-4-hydroxylase: the vitamin C requiring uncoupled oxidation” (Bioorg Med Chem Lett, 2000), this text covers V/K, Km and Vmax for three molecules.

Common to all, as to type: ADME
Data set [1] can be described thus: V/K by incubating with prolyl-4-hydroxylase under standard assay conditions.
Data set [2] is described as follows: Km by incubating with prolyl-4-hydroxylase under standard assay conditions.
Data set [3] in a line: Percent Vmax by incubating with prolyl-4-hydroxylase under standard assay conditions.

Square brackets hold non-standard residues; d marks the D form. Peptide text beside a SMILES is read from it. * marks the point of attachment. ΔPro = O=C(O)[C@@H]1C=CCN1; Cbz = O=C(OCc1ccccc1)*

Molecule `CCOC(=O)CNC(=O)[C@@H]1CCCN1C(=O)[C@H](Cc1ccccc1)NC(=O)CNC(=O)OCc1ccccc1` (Cbz-GFPG-OEt) yielded a V/K in data set [1] of 3.4. Further, the Km in data set [2] was 520 µM. Also, in data set [3], the Vmax is given as 30%.

Turning to `CCOC(=O)CNC(=O)[C@@H]1C=CCN1C(=O)[C@H](Cc1ccccc1)NC(=O)CNC(=O)OCc1ccccc1` (Cbz-GF[ΔPro]G-OEt), the Km in data set [2] was found to be 200 µM. The Vmax in data set [3] was determined as 95%.

As to `O=C(O)CNC(=O)[C@@H]1CCCN1C(=O)[C@@H]1CCCN1` (H-Pro-Pro-Gly-OH), in data set [2], the Km was found to be 200 µM. The Vmax in data set [3] was determined as 100%.
